Test results reported in ChEMBL document CHEMBL5576150, “Synthesis and Biological Evaluation of Pyrazole-Pyrimidones as a New Class of Correctors of the Cystic Fibrosis Transmembrane Conductance Regulator (CFTR)” (J Med Chem, 2024).
Values belong to the compound of their own block, whether it stands above or below them. Activity calls are given as the source filed them. The rule behind the calls is not given here.

Key:
[1] = system: Cystic fibrosis transmembrane conductance regulator (Homo sapiens), P13569 [F508del]; test: (§1) Corrector activity at 3xHA-tagged full-length human CFTR F508del mutant expressed in human CFBE41o- cells assessed as restoration of plasma membrane density of channel incubated for 24 hrs in presence of VX-809/N-(5-(4-fluorobenzyl)thiazol-2-yl)-2,5-dimethylfuran-3-carboxamide by ELISA; format: cell membranes; details: filed as activator, dose 10.0 µM
Cystic fibrosis transmembrane conductance regulator (Homo sapiens), P13569 [F508del], sequence (P13569 as listed by the source): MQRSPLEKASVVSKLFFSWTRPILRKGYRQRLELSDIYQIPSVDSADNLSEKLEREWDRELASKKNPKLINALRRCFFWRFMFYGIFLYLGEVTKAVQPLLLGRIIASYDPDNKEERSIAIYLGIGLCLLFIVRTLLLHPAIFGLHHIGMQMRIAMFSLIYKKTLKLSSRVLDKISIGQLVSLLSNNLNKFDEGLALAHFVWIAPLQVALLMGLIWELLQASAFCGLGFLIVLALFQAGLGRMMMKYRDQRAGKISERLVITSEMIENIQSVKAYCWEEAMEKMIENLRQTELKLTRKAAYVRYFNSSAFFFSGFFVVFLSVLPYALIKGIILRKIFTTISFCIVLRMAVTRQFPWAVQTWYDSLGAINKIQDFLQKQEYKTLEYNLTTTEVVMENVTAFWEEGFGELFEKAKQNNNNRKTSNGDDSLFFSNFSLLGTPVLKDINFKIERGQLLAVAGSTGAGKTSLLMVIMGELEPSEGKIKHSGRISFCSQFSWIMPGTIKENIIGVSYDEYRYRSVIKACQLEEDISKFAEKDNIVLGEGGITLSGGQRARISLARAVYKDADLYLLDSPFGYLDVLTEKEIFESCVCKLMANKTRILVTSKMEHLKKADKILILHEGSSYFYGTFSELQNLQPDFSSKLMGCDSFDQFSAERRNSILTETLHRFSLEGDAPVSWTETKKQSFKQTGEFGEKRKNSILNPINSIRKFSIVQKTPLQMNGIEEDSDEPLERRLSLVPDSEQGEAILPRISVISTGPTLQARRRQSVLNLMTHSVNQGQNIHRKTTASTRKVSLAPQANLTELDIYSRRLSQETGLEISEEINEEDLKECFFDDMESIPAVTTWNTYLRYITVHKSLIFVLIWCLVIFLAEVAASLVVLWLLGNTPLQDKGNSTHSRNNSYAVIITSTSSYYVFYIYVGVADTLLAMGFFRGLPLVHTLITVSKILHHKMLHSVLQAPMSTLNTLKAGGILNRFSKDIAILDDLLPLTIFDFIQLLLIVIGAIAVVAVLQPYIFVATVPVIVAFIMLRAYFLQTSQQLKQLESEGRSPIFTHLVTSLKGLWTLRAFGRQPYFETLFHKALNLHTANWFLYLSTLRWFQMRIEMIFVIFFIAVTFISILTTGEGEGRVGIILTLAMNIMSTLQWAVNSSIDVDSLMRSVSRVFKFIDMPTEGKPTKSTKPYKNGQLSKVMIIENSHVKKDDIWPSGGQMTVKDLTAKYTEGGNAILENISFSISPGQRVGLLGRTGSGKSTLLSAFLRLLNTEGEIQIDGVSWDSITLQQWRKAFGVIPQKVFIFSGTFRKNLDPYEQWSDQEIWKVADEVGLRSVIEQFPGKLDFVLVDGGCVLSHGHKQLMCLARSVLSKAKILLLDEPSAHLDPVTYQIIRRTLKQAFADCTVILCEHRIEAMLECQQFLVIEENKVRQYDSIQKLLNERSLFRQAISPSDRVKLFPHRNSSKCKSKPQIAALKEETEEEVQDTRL

[2] = target: Cystic fibrosis transmembrane conductance regulator (Homo sapiens, UniProt P13569, F508DEL); test: as §1; format: cell membranes
Cystic fibrosis transmembrane conductance regulator, sequence (P13569 as listed by the source): as above

[3] = system: Cystic fibrosis transmembrane conductance regulator (Homo sapiens), P13569 [F508del]; test: Corrector activity at 3xHA-tagged full-length human CFTR F508del mutant expressed in human CFBE41o- cells assessed as functional rescue of channel by measuring anion transport measured after 24 hrs in presence of VX-809/N-(5-(4-fluorobenzyl)thiazol-2-yl)-2,5-dimethylfuran-3-carboxamide by halide-sensitive YFP quenching assay relative to combination of VX-809/N-(5-(4-fluorobenzyl)thiazol-2-yl)-2,5-dimethylfuran-3-carboxamide; format: cell-based; details: filed as activator
[4] = system: Cystic fibrosis transmembrane conductance regulator (Homo sapiens), P13569 [F508del]; test: (§2) Corrector activity at 3xHA-tagged full-length human CFTR F508del mutant expressed in human CFBE41o- cells assessed as rescue of forskolin/VX-770-induced transepithelial short-circuit current measured after 24 hrs in presence of VX-809/N-(5-(4-fluorobenzyl)thiazol-2-yl)-2,5-dimethylfuran-3-carboxamide by electrophysiological method relative to wild-type CFTR activity; format: cell-based; details: filed as activator
[5] = system: Cystic fibrosis transmembrane conductance regulator (Homo sapiens), P13569 [F508del]; test: Corrector activity at 3xHA-tagged full-length human CFTR F508del mutant expressed in human CFBE41o- cells assessed as fractional plasma membrane density at 10 uM in presence of VX-809/N-(5-(4-fluorobenzyl)thiazol-2-yl)-2,5-dimethylfuran-3-carboxamide relative to forskoli-stimulated wild-type CFTR expressed in human CFBE41o- cells; format: cell membranes; details: filed as activator
[6] = system: Cystic fibrosis transmembrane conductance regulator (Homo sapiens), P13569 [F508del]; test: as §2, with “[…]” for “rescue of”, “at 10 uM” for “measured after 24 hrs”, “control” for “wild-type CFTR activity”; format: cell-based; set-up: scale not given: the % may be the effect or the level left; details: filed as activator
[7] = system: Cystic fibrosis transmembrane conductance regulator (Homo sapiens), P13569 [F508del]; test: Corrector activity at CFTR F508del mutant in patient-derived human HBE cells assessed as forskolin/VX-770-induced transepithelial short-circuit current in presence of VX-809/N-(5-(4-fluorobenzyl)thiazol-2-yl)-2,5-dimethylfuran-3-carboxamide by electrophysiological method (reference value: 16 %); format: cell-based; details: filed as activator
[8] = system: Cystic fibrosis transmembrane conductance regulator (Homo sapiens), P13569 [S13F]; test: Corrector activity at 3xHA-tagged full-length human CFTR S13F mutant expressed in human CFBE41o- cells assessed as restoration of plasma membrane density of channel in presence of VX-809/N-(5-(4-fluorobenzyl)thiazol-2-yl)-2,5-dimethylfuran-3-carboxamide by ELISA; format: cell membranes; details: filed as activator
Cystic fibrosis transmembrane conductance regulator (Homo sapiens), P13569 [S13F], sequence (P13569 whole entry S13F): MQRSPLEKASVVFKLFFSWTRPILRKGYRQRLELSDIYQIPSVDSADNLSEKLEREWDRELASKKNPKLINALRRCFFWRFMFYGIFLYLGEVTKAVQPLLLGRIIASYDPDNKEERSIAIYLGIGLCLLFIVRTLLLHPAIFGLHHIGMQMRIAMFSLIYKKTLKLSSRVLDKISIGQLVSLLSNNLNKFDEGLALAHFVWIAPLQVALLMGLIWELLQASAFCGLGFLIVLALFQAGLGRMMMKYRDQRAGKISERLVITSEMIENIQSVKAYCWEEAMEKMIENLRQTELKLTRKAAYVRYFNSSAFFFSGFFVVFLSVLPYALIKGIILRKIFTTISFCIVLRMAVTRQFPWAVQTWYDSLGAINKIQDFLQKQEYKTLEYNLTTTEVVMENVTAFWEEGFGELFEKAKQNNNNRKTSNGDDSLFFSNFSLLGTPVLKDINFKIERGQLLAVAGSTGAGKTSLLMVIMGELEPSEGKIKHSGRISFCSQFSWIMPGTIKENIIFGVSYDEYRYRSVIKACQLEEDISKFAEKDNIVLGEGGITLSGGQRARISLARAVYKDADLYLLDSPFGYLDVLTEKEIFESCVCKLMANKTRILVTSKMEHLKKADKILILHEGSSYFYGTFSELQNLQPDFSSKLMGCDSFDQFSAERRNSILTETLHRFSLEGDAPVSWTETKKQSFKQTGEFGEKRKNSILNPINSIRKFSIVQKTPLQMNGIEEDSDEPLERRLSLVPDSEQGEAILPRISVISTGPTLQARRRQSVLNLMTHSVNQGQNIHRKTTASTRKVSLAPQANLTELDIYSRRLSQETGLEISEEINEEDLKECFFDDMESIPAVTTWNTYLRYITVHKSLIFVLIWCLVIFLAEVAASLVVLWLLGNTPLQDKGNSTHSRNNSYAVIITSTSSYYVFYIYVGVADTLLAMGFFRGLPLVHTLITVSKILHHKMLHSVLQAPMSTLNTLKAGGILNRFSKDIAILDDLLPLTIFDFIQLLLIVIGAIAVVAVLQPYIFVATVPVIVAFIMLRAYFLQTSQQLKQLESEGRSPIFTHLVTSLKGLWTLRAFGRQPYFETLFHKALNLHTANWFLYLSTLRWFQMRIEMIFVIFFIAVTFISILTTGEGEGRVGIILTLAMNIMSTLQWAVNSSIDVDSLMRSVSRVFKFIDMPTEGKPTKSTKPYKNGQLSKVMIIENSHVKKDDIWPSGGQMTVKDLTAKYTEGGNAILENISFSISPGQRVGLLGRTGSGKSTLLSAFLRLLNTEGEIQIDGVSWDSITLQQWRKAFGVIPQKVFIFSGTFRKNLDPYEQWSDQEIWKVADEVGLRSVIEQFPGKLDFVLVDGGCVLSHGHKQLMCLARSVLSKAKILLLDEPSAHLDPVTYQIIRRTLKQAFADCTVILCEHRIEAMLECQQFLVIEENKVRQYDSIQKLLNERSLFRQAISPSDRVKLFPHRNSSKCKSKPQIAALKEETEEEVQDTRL

[9] = system: Cystic fibrosis transmembrane conductance regulator (Homo sapiens), P13569 [S492F]; test: Corrector activity at 3xHA-tagged full-length human CFTR S492F mutant expressed in human CFBE41o- cells assessed as restoration of plasma membrane density of channel in presence of VX-809/N-(5-(4-fluorobenzyl)thiazol-2-yl)-2,5-dimethylfuran-3-carboxamide by ELISA; format: cell membranes; details: filed as activator
Cystic fibrosis transmembrane conductance regulator (Homo sapiens), P13569 [S492F], sequence (P13569 whole entry S492F): as the sequence (P13569 whole entry S13F) above, with F13S, S492F counted along it

[10] = system: Cystic fibrosis transmembrane conductance regulator (Homo sapiens), P13569 [M1101K]; test: Corrector activity at 3xHA-tagged full-length human CFTR M1101K mutant expressed in human CFBE41o- cells assessed as restoration of plasma membrane density of channel in presence of VX-809/N-(5-(4-fluorobenzyl)thiazol-2-yl)-2,5-dimethylfuran-3-carboxamide by ELISA relative to wild-type CFTR level; format: cell membranes; details: filed as activator
Cystic fibrosis transmembrane conductance regulator (Homo sapiens), P13569 [M1101K], sequence (P13569 whole entry M1101K): as the sequence (P13569 whole entry S13F) above, with F13S, M1101K counted along it

[11] = system: Cystic fibrosis transmembrane conductance regulator (Homo sapiens), P13569 [N1303K]; test: Corrector activity at 3xHA-tagged full-length human CFTR N1303K mutant expressed in human CFBE41o- cells assessed as restoration of plasma membrane density of channel in presence of VX-809/N-(5-(4-fluorobenzyl)thiazol-2-yl)-2,5-dimethylfuran-3-carboxamide by ELISA relative to wild-type CFTR level; format: cell membranes; details: filed as activator
Cystic fibrosis transmembrane conductance regulator (Homo sapiens), P13569 [N1303K], sequence (P13569 whole entry N1303K): as the sequence (P13569 whole entry S13F) above, with F13S, N1303K counted along it

[12] = system: Cystic fibrosis transmembrane conductance regulator (Homo sapiens), P13569 [R560T]; test: Corrector activity at 3xHA-tagged full-length human CFTR R560T mutant expressed in human CFBE41o- cells assessed as restoration of plasma membrane density of channel in presence of VX-809/N-(5-(4-fluorobenzyl)thiazol-2-yl)-2,5-dimethylfuran-3-carboxamide by ELISA; format: cell membranes
Cystic fibrosis transmembrane conductance regulator (Homo sapiens), P13569 [R560T], sequence (P13569 whole entry R560T): as the sequence (P13569 whole entry S13F) above, with F13S, R560T counted along it

[13] = system: Cystic fibrosis transmembrane conductance regulator (Homo sapiens), P13569 [S13F]; test: Corrector activity at 3xHA-tagged full-length human CFTR S13F mutant expressed in human CFBE41o- cells assessed as restoration of plasma membrane density of channel in presence of N-(5-(4-fluorobenzyl)thiazol-2-yl)-2,5-dimethylfuran-3-carboxamide incubated for 24 hrs by ELISA; format: cell membranes; details: filed as activator
[14] = system: Cystic fibrosis transmembrane conductance regulator (Homo sapiens), P13569 [S13F]; test: Corrector activity at 3xHA-tagged full-length human CFTR S13F mutant expressed in human CFBE41o- cells assessed as restoration of plasma membrane density of channel in presence of VX-809 incubated for 24 hrs by ELISA; format: cell membranes; details: filed as activator
[15] = system: Cystic fibrosis transmembrane conductance regulator (Homo sapiens), P13569 [S13F]; test: Corrector activity at 3xHA-tagged full-length human CFTR S13F mutant expressed in human CFBE41o- cells assessed as restoration of plasma membrane density of channel in presence of VX-661 incubated for 24 hrs by ELISA; format: cell membranes; details: filed as activator
[16] = system: Cystic fibrosis transmembrane conductance regulator (Homo sapiens), P13569 [S492F]; test: Corrector activity at 3xHA-tagged full-length human CFTR S492F mutant expressed in human CFBE41o- cells assessed as restoration of plasma membrane density of channel in presence of N-(5-(4-fluorobenzyl)thiazol-2-yl)-2,5-dimethylfuran-3-carboxamide incubated for 24 hrs by ELISA; format: cell membranes; details: filed as activator
[17] = system: Cystic fibrosis transmembrane conductance regulator (Homo sapiens), P13569 [S492F]; test: Corrector activity at 3xHA-tagged full-length human CFTR S492F mutant expressed in human CFBE41o- cells assessed as restoration of plasma membrane density of channel in presence of VX-809 incubated for 24 hrs by ELISA; format: cell membranes; details: filed as activator
[18] = system: Cystic fibrosis transmembrane conductance regulator (Homo sapiens), P13569 [S492F]; test: Corrector activity at 3xHA-tagged full-length human CFTR S492F mutant expressed in human CFBE41o- cells assessed as restoration of plasma membrane density of channel in presence of VX-661 incubated for 24 hrs by ELISA; format: cell membranes; details: filed as activator
[19] = system: Cystic fibrosis transmembrane conductance regulator (Homo sapiens), P13569 [F508del]; test: Corrector activity at 3xHA-tagged full-length human CFTR F508del mutant expressed in human CFBE41o- cells assessed as restoration of plasma membrane density of channel in presence of N-(5-(4-fluorobenzyl)thiazol-2-yl)-2,5-dimethylfuran-3-carboxamide incubated for 24 hrs by ELISA; format: cell membranes; details: filed as activator
[20] = system: Cystic fibrosis transmembrane conductance regulator (Homo sapiens), P13569 [F508del]; test: Corrector activity at 3xHA-tagged full-length human CFTR F508del mutant expressed in human CFBE41o- cells assessed as restoration of plasma membrane density of channel incubated for 24 hrs in presence of VX-809 by ELISA; format: cell membranes; details: filed as activator
[21] = system: Cystic fibrosis transmembrane conductance regulator (Homo sapiens), P13569 [F508del]; test: Corrector activity at 3xHA-tagged full-length human CFTR F508del mutant expressed in human CFBE41o- cells assessed as restoration of plasma membrane density of channel incubated for 24 hrs in presence of VX-661 by ELISA; format: cell membranes; details: filed as activator
[22] = system: Cystic fibrosis transmembrane conductance regulator (Homo sapiens), P13569 [S13F]; test: Corrector activity at 3xHA-tagged full-length human CFTR S13F mutant expressed in human CFBE41o- cells assessed as restoration of plasma membrane density of channel incubated for 24 hrs in presence of VX-445 by ELISA; format: cell membranes
[23] = system: Cystic fibrosis transmembrane conductance regulator (Homo sapiens), P13569 [S492F]; test: Corrector activity at 3xHA-tagged full-length human CFTR S492F mutant expressed in human CFBE41o- cells assessed as restoration of plasma membrane density of channel incubated for 24 hrs in presence of VX-445 by ELISA; format: cell membranes
[24] = system: Cystic fibrosis transmembrane conductance regulator (Homo sapiens), P13569 [F508del]; test: Corrector activity at 3xHA-tagged full-length human CFTR F508del mutant expressed in human CFBE41o- cells assessed as restoration of plasma membrane density of channel incubated for 24 hrs in presence of VX-445 by ELISA; format: cell membranes
[25] = system: Cystic fibrosis transmembrane conductance regulator (Homo sapiens), P13569 [S13F]; test: Corrector activity at 3xHA-tagged full-length human CFTR S13F mutant expressed in human CFBE41o- cells assessed as restoration of plasma membrane density of channel at 10 uM incubated for 24 hrs in presence of VX-445 by ELISA; format: cell membranes
[26] = system: Cystic fibrosis transmembrane conductance regulator (Homo sapiens), P13569 [S492F]; test: Corrector activity at 3xHA-tagged full-length human CFTR S492F mutant expressed in human CFBE41o- cells assessed as restoration of plasma membrane density of channel at 10 uM incubated for 24 hrs in presence of VX-661/VX-445 by ELISA; format: cell membranes; details: filed as activator
[27] = system: Cystic fibrosis transmembrane conductance regulator (Homo sapiens), P13569 [F508del]; test: (§3) Corrector activity at 3xHA-tagged full-length human CFTR F508del mutant expressed in human CFBE41o- cells assessed as restoration of plasma membrane density of channel at 10 uM incubated for 24 hrs in presence of VX-661/VX-445 by ELISA; format: cell membranes; details: filed as activator
[28] = system: Cystic fibrosis transmembrane conductance regulator (Homo sapiens), P13569 [S492F]; test: as §2, with “S492F” for “F508del”, “current at 10 uM” for “current”, “method” for “method relative to wild-type CFTR activity”; format: cell-based; details: filed as activator
[29] = system: Cystic fibrosis transmembrane conductance regulator (Homo sapiens), P13569 [F508del]; test: as §3, with “VX-809/N-(5-(4-fluorobenzyl)thiazol-2-yl)-2,5-dimethylfuran-3-carboxamide” for “VX-661/VX-445”, “ELISA relative to wild-type CFTR level” for “ELISA”; format: cell membranes; details: filed as activator

- Activity [1]: Dose-Dependent Effect
- EC50 [2]: 3.05 µM
- Activity [3]: 250%
- Activity [4]: 80%
- Activity [5]: 84%
- Activity [6]: -14%
- Activity [7]: 50%
- Activity [8]: Active
- Activity [9]: Active
- Activity [10]: 15%
- Activity [11]: 15%
- Activity [12]: inactive
- Activity [13]: Active
- Activity [14]: Active
- Activity [15]: Active
- Activity [16]: Active
- Activity [17]: Active
- Activity [18]: Active
- Activity [19]: Active
- Activity [20]: Active
- Activity [21]: Active
- Activity [22]: inactive
- Activity [23]: inactive
- Activity [24]: inactive
- Activity [25]: inactive
- Activity [26]: Active
- Activity [27]: Active
- Activity [28]: Active
Compound: O=C(Nc1cc(-c2cccs2)nn1-c1nc2c(c(=O)[nH]1)CCCC2)C1(c2ccc(Cl)cc2)CCCC1

- Activity [29]: 102%
Compound: Cc1nc(-n2nc(-c3ccccc3)cc2NC(=O)C2(c3ccc(Cl)cc3)CCCC2)[nH]c(=O)c1C
